This is an account of results in US11447471B2, “α,β-unsaturated amide compound” (KYOWA KIRIN CO., LTD., priority 2017, dated 2022).

The test system of the experiment is OVTOKO cells. Put plainly: Cell growth inhibitory effect on human ovarian cancer cell line (cell counting kit 8, 6 days). Format: cell-based. Conditions: 144 h, 6 days incubation. The text has this: NCI-H226 cells, a human mesothelioma cell line (ATCC, CRL-5826), NCI-H322 cells, a human lung cancer cell line (the European Collection of Authenticated Cell Cultures, 95111734), OUTOKO cells, a human ovarian cancer cell line (JCRB cell bank, KRB1048) and […] were each subcultured by keeping the cell density under 80% in a RPMI1640 culture medium with 10% fetal bovine serum (FBS). NCI-H226 cells, NCI-H322 cells and SSP-25 cells were each suspended in the RPMI1640 culture medium mentioned above, and plated to a 96-well flat-bottom plate at 500 cells/well in each well, and incubated at 37° C. in an incubator with 5% CO2 for one day. After the incubation, the evaluation of cell growth inhibitory activity was started. OVTOKO cells were suspended in the RPMI1640 culture medium mentioned above, and plated to a 96-well flat-bottom plate at 250 cells/well in each well, and incubated it at 37° C. in an incubator with 5% CO2 for one day. After the incubation, the evaluation of the cell growth inhibitory activity was started. The next day, a test compound was serially diluted to 5 times of its final concentration in the RPM11640 culture medium mentioned above, and the diluted solution was added to each well. In this case, the final concentration of DMSO in each well was adjusted to 0.1%. After the test compound was added, cells were incubated at 37° C. in an incubator with 5% CO2 for 6 days. At the addition of the test compound and 6 days after the addition, the cell counting measurement was performed using a cell counting kit 8 (made by DOJINDO) according to a protocol equivalent to DOJINDO's recommendation. A reagent contained in the kit was added to each plate and color reaction was performed for 2 or 3 hours at 37° C. in an incubator with 5% CO2. After the reaction, an absorbance at wavelength of 450 nm was measured using a microplate reader. A growth inhibition rate was calculated according to the following formula, from which the concentration of a test compound at which cell growth was inhibited by 50% (GI50 value) was determined.

The molecule `C=CC(=O)NC1COc2c(cccc2Oc2cnc(C(F)(F)F)nc2)C1` (centres unmarked) [Compound 155, N-(8-[{2-(Trifluoromethyl)pyrimidin-5-yl}oxy]chroman-3-yl)acrylamide] gave a GI50 of at most 3 µM.

As for `C=CC(=O)N[C@H]1CC[C@@H](Oc2ccc(C(F)(F)F)cc2)c2nc(Cl)ccc21` (relative stereo) [Compound 241, cis-N-[2-Chloro-8-{4-(trifluoromethyl)phenoxy}-5,6,7,8-tetrahydroquinolin-5-yl]acrylamide], the GI50 is at most 3 µM.

Regarding `C=CC(=O)NCc1ccc(Oc2ccc(C(F)(F)F)cc2)c2cnccc12` [Compound 223, N-([8-{4-(Trifluoromethy)phenoxy}isoquinolin-5-yl]methyl)acrylamide], the GI50 is at most 3 µM.

For the molecule `C=CC(=O)NCc1ccc(Oc2ccc(C(F)(F)F)cc2)c2cccnc12` [Compound 216, N-([5-{4-(Trifluoromethyl)phenoxy}quinolin-8-yl]methyl)acrylamide], the GI50 is at most 3 µM.

As for `C=CC(=O)NC1COc2c(cccc2Oc2cnc(C(F)(F)F)cn2)C1` (centres unmarked) [Compound 157, N-(8-[{5-(Trifluoromethyl)pyrazin-2-yl}oxy]chroman-3-yl)acrylamide], the GI50 is at most 3 µM.

Regarding `C=CC(=O)NCc1ncc(Oc2ccc(C(F)(F)F)cc2)c2ccccc12` [Compound 224, N-([4-{4-(Trifluorophenyl)phenoxy}isoquinolin-1-yl]methyl)acrylamide], the GI50 was at most 3 µM.

`[H]/C=C/C(=O)NCc1ccc(Oc2ccc(C(F)(F)F)nc2)c2ncccc12` [Compound 143, N-{(8-[{6-(Trifluoromethyl)pyridin-3-yl}oxy]quinolin-5-yl)methyl}acrylamide] returned a GI50 of at most 3 µM.

The molecule `[H]/C=C/C(=O)NCc1cc(Oc2ccc(C(F)(F)F)nc2)nc2ccccc12` [Compound 149, N-{(2-[{6-(Trifluoromethyl)pyridin-3-yl}oxy]quinolin-4-yl)methyl}acrylamide] gave a GI50 of at most 3 µM.

`C=CC(=O)Nc1ccc(Oc2cccc(Cl)c2)c2ncccc12` [Compound 114, N-{8-(3-Chlorophenoxy)quinolin-5-yl}acrylamide] registered a GI50 of at most 3 µM.

Consider `C=CC(=O)N[C@@H]1c2ccc(Oc3ccc(C(F)(F)F)cc3)cc2OC[C@@H]1F` (relative stereo) [Compound 21, cis-N-[3-Fluoro-7-{4-(trifluoromethyl)phenoxy}chroman-4-yl]acrylamide], for which the GI50 is at most 3 µM.

Consider `C=CC(=O)NC1COc2c(cccc2Oc2ccc(Cl)cc2)C1` (centres unmarked) [Compound 59, N-{8-(4-chlorophenoxy)chroman-3-yl}acrylamide], for which the GI50 is at most 3 µM.

As for `C=CC(=O)NC1CCOc2c1ccc(Oc1ccc(F)c(F)c1)c2OC` (centres unmarked) [Compound 164, N-{7-(3,4-Difluorophenoxy)-8-methoxychroman-4-yl}acrylamide], the GI50 is at most 3 µM.

With `C=CC(=O)Nc1ccc(Oc2ccccc2)c2ncccc12` [Compound 111, N-(8-Phenoxyquinolin-5-yl)acrylamide], the GI50 was at most 3 µM.

In the case of `C=CC(=O)NC1COc2c(Oc3ccc(C(F)(F)F)cc3)cccc2C1=O` (racemic) [Compound 40, N-[4-Oxo-8-{4-(trifluoromethyl)phenoxy}chroman-3-yl]acrylamide], the GI50 is at most 3 µM.

On to `C=CC(=O)NC1COc2c(cc(C(F)(F)F)cc2Oc2ccc(C(F)(F)F)nc2)C1` (centres unmarked) [Compound 162, N-{6-(Trifluoromethyl)-8-[{6-(trifluoromethyl)pyridin-3-yl}oxy]chroman-3-yl}acrylamide], for which the GI50 is at most 3 µM.

For `C=CC(=O)Nc1cncc(Oc2ccc(C(F)(F)F)cn2)c1` [Compound 109, N-(5-[{5-(Trifluoromethyl)pyridin-2-yl}oxy]pyridin-3-yl)acrylamide], the GI50 was at most 3 µM.

Turning to `C=CC(=O)NC1COc2c(Oc3ccc(Cl)cc3)ccc(C)c2C1` (centres unmarked) [Compound 41, N-{8-(4-Chlorophenoxy)-5-methylchroman-3-yl}acrylamide], the GI50 is at most 3 µM.

`C=CC(=O)NC1CCOc2c1ccc(Oc1ccc(C(F)(F)F)nc1)c2Cl` (centres unmarked) [Compound 168, N-(8-Chloro-7-[{6-(trifluoromethyl)pyridin-3-yl}oxy]chroman-4-yl)acrylamide] had a GI50 of at most 3 µM.

`[H]/C=C/C(=O)NCc1cc(Oc2ccnc(C(F)(F)F)c2)nc2ccccc12` [Compound 151, N-{(2-[{2-(Trifluoromethyl)pyridin-4-yl}oxy]quinolin-4-yl)methyl}acrylamide] yielded a GI50 of at most 3 µM.

The molecule `[H]/C=C/C(=O)NC1CCOc2c1ccc(Oc1ccc(C(F)(F)F)cc1)c2C` (centres unmarked) [Compound 28, N-[8-Methyl-7-{4-(trifluoromethyl)phenoxy}chroman-4-yl]acrylamide] had a GI50 of at most 3 µM.

The molecule `C=CC(=O)NCc1cnc(Oc2ccc(Cl)cc2)c2ncccc12` [Compound 227, N-[{8-(4-Chlorophenoxy)-1,7-naphthyridin-5-yl}methyl]acrylamide] returned a GI50 of at most 3 µM.

Take `C=CC(=O)NCc1ccc(C(O)c2ccc(C(F)(F)F)cc2)c2ncccc12` (centres unmarked) [Compound 206, N-{(8-[Hydroxy{4-(trifluoromethyl)phenyl}methyl]quinolin-5-yl)methyl}acrylamide]: the GI50 is at most 3 µM.

Molecule `C=CC(=O)N[C@@H]1c2ccc(Oc3ccc(C(F)(F)F)cc3)cc2OC[C@H]1F` (relative stereo) [Compound 22, trans-N-[3-Fluoro-7-{4-(trifluoromethyl)phenoxy}chroman-4-yl]acrylamide] had a GI50 of at most 3 µM.

As for `C=CC(=O)Nc1ccc(Oc2ccc(Cl)cc2)c2nc(C)ccc12` [Compound 117, N-{8-(4-Chlorophenoxy)-2-methylquinolin-5-yl}acrylamide], the GI50 is at most 3 µM.

`C=CC(=O)NCc1ccc(C(=O)c2ccc(C(F)(F)F)cc2)c2ncccc12` [Compound 208, N-([8-{4-(Trifluoromethyl)benzoyl}quinolin-5-yl]methyl)acrylamide] showed a GI50 of at most 3 µM.

`C=CC(=O)Nc1cncc(Oc2ccc(C(F)(F)F)c(F)c2)c1` [Compound 106, N-[5-{3-Fluoro-4-(trifluoromethyl)phenoxy}pyridin-3-yl]acrylamide] had a GI50 of at most 3 µM.

Turning to `C=CC(=O)Nc1cncc(Oc2cccc(C(F)(F)F)c2)c1` [Compound 95, N-[5-{3-(Trifluoromethyl)phenoxy}pyridin-3-yl)acrylamide], the GI50 was at most 3 µM.

On to `C=CC(=O)NC1COc2c(cccc2Oc2ccc(C(F)(F)F)cc2)C1` (centres unmarked) [Compound 61, N-[8-{4-(Trifluoromethyl)phenoxy}chroman-3-yl]acrylamide], for which the GI50 was at most 3 µM.

`C=CC(=O)NCc1ccc(Oc2ccc(C(F)(F)F)cc2)c2nc(C)ccc12` [Compound 212, N-([2-Methyl-8-{4-(trifluoromethyl)phenoxy}quinolin-5-yl]methyl)acrylamide] displayed a GI50 of at most 3 µM.

As for `[H]/C=C/C(=O)NCc1ccc(Oc2ccc(Cl)cc2)c2ncccc12` [Compound 134, N-[{8-(4-Chlorophenoxy)quinolin-5-yl}methyl]acrylamide], the GI50 was at most 3 µM.

In the case of `C=CC(=O)NCc1ccc(Oc2ccc(C(F)(F)F)nc2)c2cccnc12` [Compound 219, N-{(5-[{6-(Trifluoromethyl)pyridin-3-yl}oxy]quinolin-8-yl)methyl}acrylamide], the GI50 was at most 3 µM.

Take `[H]/C=C/C(=O)NCc1cc(Oc2ccnc(Cl)c2)nc2ccccc12` [Compound 150, N-([2-{(2-Chloropyridin-4-yl)oxy}quinolin-4-yl]methyl)acrylamide]: the GI50 was at most 3 µM.

`[H]/C=C/C(=O)NC1CCOc2c1ccc(Oc1ccc(Cl)cc1)c2OC` (centres unmarked) [Compound 32, N-{7-(4-Chlorophenoxy)-8-methoxychroman-4-yl}acrylamide] registered a GI50 of at most 3 µM.

As for `C=CC(=O)NCc1ccc(Nc2ccc(C(F)(F)F)cc2)c2ncccc12` [Compound 203, N-{(8-[{4-(Trifluoromethyl)phenyl}amino]quinolin-5-yl)methyl}acrylamide], the GI50 is at most 3 µM.

In the case of `C=CC(=O)Nc1cncc(Oc2cncc(C(F)(F)F)c2)c1` [Compound 107, N-(5-[{5-(Trifluoromethyl)pyridin-3-yl}oxy]pyridin-3-yl)acrylamide], the GI50 was at most 3 µM.

The molecule `C=CC(=O)NC1CCOc2c1ccc(Oc1ccc(C(F)(F)F)nc1)c2Br` (centres unmarked) [Compound 169, N-(8-Bromo-7-[{6-(trifluoromethyl)pyridin-3-yl}oxy]chroman-4-yl)acrylamide] registered a GI50 of at most 3 µM.

Take `C=CC(=O)NCc1ccc(Oc2ccc(Cl)cc2)c2c1CCCO2` [Compound 176, N-[{8-(4-Chlorophenoxy)chroman-5-yl}methyl]acrylamide]: the GI50 is at most 3 µM.

In turn, `C=CC(=O)Nc1ccc(Oc2ccccc2)c2nc(C)ccc12` [Compound 112, N-(2-Methyl-8-phenoxyquinolin-5-yl)acrylamide] registered a GI50 of at most 3 µM.
